Laboratory results as given in patent US10889543B2, “Fine-tune modulators of neuronal excitability for neuropsychiatric disorders” (THE BOARD OF REGENTS OF THE UNIVERSITY OF TEXAS SYSTEM, priority 2016, dated 2021).
Residues, ends and D or L forms follow the SMILES beside them. *: point of attachment. Cbz = O=C(OCc1ccccc1)*; Boc = CC(C)(C)OC(=O)*

Tests used:
[1] = target: T1, Nav1.2 channels (Homo sapiens, UniProt Q99250); assay: Patch clamp of Na+ currents in Nav1.2 channels; assay type: cell-based
T1 construct: expressed in transfected cells
Protocol: The role of ZL0181 in regulating Nav1.1 and Nav1.2 channels was also investigated.
HEK-Nav1.1, […] HEK-Nav1.6 were maintained in medium composed of equal volumes of DMEM and F-12 (Invitrogen) supplemented with 0.05% glucose, 0.5 mm pyruvate, 10% fetal bovine serum, 100 units/ml penicillin, 100 μg/ml streptomycin incubated at 37° C. with 5% CO2. For selection of Nav1.1 and Nav1.2, 500 μg/ml G418 (Invitrogen) was used, and for selection of Nav1.6, 80 μg/ml G418 (Invitrogen) was used. Cells were transfected according to manufacturer's instructions at 90-100% confluency using Lipofectamine 2000 (Invitrogen). See e.g., Shavkunov, A., et al. Assay and drug development technologies 10(2):148-160 (2012).
Detailed methods for path-clamp experiments is known in the art. See e.g., Ali, S. R., et al., Journal of Biological Chemistry 291:11268 (2016).

[2] = target: T2, FGF14 (Homo sapiens, UniProt Q92915); assay: Surface plasmon resonance spectroscopy, immobilized FGF14; assay type: binding; details: SPR, 25° C., 10-200 μM
T2 construct: made in house
T2 sequence (Q92915 64-252 isoform Q92915-2 limits assumed): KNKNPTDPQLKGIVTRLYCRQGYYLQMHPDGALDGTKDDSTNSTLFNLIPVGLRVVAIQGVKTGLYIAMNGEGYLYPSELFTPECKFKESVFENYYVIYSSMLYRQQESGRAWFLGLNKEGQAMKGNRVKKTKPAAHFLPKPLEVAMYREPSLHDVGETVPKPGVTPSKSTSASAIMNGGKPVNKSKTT
Protocol: (§1) Surface Plasmon Resonance Spectroscopy. SPR experiments were performed on a Biacore T100 instrument (Biacore GE), and the interaction between FGF14 to Nav1.6 channel was studied at 25° C. To analyze the effects of ZL0181 on channel binding, FGF14WT and Nav1.6 C-tail were immobilized using acetate 5.5 with amine coupling kit on CM5 sensor chip, and obtaining RU 3000 and 4500 respectively. No protein was coupled to the control flow channel of the chip. ZL0181 (5-200 μM) in HBS-P+(50 μl/min) buffer ([…], 150 mM NaCl, 0.005% (v/v) P20), pH 7.4 were injected over the chip for 180 s. Next, HB S-P+ buffer without protein were passed over the chip for 180 s to monitor dissociation, and the chip surface was then regenerated with NaCl (200 mM). For each injection of ZL0181 binding to the FGF14WT or the Nav1.6, the nonspecific responses were subtracted from the responses obtained for control prior to data analysis. Maximal equilibrium responses were plotted against the concentrations of ZL0181, and the equilibrium dissociation constant (KD) was calculated from the fitted saturation binding curve. Fitted binding curves were judged to be accurate based on the distribution of the residuals (even and near zero). Graphs were plotted in GraphPad Prism 6 Software (La Jolla, Calif.).
(§2) The role of ZL0181 was further determined by surface plasmon resonance spectroscopy. […]

[3] = target: T3, Nav1.6 C-tail (Homo sapiens, UniProt Q9UQD0); assay: Surface plasmon resonance spectroscopy, immobilized Nav1.6 C-tail; assay type: binding; details: SPR, 25° C., 10-200 μM
T3 construct: FGF14WT and Nav1.6 C-tail were immobilized; made in house
Protocol: as §1, §2

T1 sequence (Q99250 whole entry): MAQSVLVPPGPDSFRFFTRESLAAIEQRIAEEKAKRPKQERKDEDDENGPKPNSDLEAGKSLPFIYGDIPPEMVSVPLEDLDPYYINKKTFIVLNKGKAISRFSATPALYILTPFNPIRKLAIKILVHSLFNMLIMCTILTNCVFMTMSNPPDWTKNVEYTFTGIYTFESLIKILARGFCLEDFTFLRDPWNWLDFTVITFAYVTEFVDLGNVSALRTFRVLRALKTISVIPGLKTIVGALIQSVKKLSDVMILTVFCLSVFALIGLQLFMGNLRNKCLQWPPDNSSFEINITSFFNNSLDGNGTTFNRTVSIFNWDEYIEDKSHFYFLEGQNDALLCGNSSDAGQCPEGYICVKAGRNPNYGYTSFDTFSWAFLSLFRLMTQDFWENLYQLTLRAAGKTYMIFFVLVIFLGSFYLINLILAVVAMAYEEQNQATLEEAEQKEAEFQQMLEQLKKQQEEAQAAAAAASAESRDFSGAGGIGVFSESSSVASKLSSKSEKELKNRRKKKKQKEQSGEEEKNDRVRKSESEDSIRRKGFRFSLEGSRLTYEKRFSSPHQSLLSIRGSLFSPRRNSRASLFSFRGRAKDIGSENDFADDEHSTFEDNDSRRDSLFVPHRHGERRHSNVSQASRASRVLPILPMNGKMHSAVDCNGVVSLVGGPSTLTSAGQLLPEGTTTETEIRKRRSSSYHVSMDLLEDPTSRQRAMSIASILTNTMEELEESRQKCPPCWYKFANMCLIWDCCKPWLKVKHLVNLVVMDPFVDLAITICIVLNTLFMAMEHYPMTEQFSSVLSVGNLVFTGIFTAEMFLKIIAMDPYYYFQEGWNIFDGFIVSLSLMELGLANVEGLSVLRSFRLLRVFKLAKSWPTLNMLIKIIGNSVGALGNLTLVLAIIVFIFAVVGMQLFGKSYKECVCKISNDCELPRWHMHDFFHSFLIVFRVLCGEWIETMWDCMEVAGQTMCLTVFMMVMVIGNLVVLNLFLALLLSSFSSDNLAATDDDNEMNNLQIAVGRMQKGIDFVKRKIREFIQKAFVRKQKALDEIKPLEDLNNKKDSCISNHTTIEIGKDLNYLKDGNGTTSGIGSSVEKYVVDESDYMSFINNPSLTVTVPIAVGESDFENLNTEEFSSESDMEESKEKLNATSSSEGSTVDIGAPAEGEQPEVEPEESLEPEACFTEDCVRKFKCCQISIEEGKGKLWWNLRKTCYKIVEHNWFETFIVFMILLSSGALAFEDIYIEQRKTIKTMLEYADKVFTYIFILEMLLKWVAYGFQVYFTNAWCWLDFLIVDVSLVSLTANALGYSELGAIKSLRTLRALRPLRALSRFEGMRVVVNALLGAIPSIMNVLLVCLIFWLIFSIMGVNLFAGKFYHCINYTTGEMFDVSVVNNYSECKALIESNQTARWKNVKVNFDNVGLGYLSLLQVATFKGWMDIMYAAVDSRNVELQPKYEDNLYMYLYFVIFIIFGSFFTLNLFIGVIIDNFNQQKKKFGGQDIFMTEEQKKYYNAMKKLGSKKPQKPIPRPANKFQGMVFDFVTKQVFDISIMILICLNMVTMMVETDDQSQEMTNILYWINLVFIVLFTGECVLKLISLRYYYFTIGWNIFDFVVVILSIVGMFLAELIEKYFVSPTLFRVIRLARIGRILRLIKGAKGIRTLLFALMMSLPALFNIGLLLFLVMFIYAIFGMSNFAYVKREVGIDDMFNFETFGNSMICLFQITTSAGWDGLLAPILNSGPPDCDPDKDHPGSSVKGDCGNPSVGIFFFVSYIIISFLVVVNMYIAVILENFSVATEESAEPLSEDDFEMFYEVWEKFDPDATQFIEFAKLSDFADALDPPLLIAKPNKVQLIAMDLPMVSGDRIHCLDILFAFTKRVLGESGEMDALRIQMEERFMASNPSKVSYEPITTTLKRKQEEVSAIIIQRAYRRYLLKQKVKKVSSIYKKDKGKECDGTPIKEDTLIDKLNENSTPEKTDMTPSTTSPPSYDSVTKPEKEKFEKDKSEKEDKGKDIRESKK
T3 sequence (Q9UQD0 1797-1980 limits assumed): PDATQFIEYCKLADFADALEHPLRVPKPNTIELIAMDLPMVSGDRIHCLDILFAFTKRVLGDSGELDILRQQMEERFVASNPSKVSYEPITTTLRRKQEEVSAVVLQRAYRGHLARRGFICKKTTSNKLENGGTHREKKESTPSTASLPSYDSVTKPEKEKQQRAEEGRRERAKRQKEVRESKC

## CC(C)C[C@H](NC(=O)[C@H](Cc1ccccc1)NC(=O)OCc1ccccc1)C(=O)N1CCC[C@H]1C(=O)N[C@@H](CCCCNC(=O)OC(C)(C)C)C(N)=O [ZL0181, Z-Phe-Leu-Pro-Lys(Boc)-NH2] (Cbz-FLPK(Boc)-NH2)
[1]
  peak current amplitude in Nav1.2 channels: suppresses peak current amplitude
[1]; in presence of FGF14
  synergy with FGF14 on Na+ current and rescue of V1/2 of inactivation, Nav1.2: does neither act synergistically to further suppress Na+ current in presence of FGF14 or rescue the voltage-dependence inactivation property
[2]
  Kd: 13 µM
[3]
  Kd: 212 µM
